What all share (assay type): biochemical
One assay deals with human JAK2 (Homo sapiens (Human), UniProt O60674). Nature of the assay: In vitro JAK kinase assay (HTRF, phosphorylation of biotinylated peptide), JAK2. The settings on record: 1 mM ATP. As for the experimental part:
Compounds herein were tested for inhibitory activity of JAK targets according to the following in vitro assay described in Park et al., Analytical Biochemistry 1999, 269, 94-104. The catalytic domains of human JAK1 (a.a. 837-1142), JAK2 (a.a. 828-1132) and JAK3 (a.a. 781-1124) were expressed using baculovirus in insect cells and purified. The catalytic activity of JAK1, JAK2 or JAK3 was assayed by measuring the phosphorylation of a biotinylated peptide. The phosphorylated peptide was detected by homogenous time resolved fluorescence (HTRF). IC50s of compounds were measured for each kinase in the 40 μL reactions that contain the enzyme, ATP and 500 nM peptide in 50 mM Tris (pH 7.8) buffer with 100 mM NaCl, 5 mM DTT, and 0.1 mg/mL (0.01%) BSA. For the 1 mM IC50 measurements, ATP concentration in the reactions was 1 mM. Reactions were carried out at room temperature for 1 hour and then stopped with 20 μL 45 mM EDTA, 300 nM SA-APC, 6 nM Eu-Py20 in assay buffer (Perkin Elmer, Boston, Mass.). Binding to the Europium labeled antibody took place for 40 minutes and HTRF signal was measured on a PHERA star plate reader (BMG, Cary, N.C.). The Example compounds were each tested in the Example A assay (see Table 1 for data for the compounds of the examples as tested by the assay of Example A at 1 mM ATP).
In general terms: Time-resolved FRET reads energy transfer from a long-lived donor to a nearby acceptor.

Assay [1] addresses human JAK1 (Homo sapiens, UniProt P23458). In words: In vitro JAK kinase assay (HTRF, phosphorylation of biotinylated peptide), JAK1. The settings on record: 1 mM ATP. The method in brief:
(§1)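 Baculovirus-expressed catalytic domains (JAK1 a.a. 837-1142, JAK2 a.a. 828-1132) phosphorylate 500 nM biotinylated peptide at 1 mM ATP, Tris pH 7.8, 1 h at room temperature. EDTA stop and HTRF detection with Eu-Py20/SA-APC; IC50 values derived.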

In assay [2] the test system is human JAK1. The description is as above. As to conditions: ratio of JAK2 IC50 to JAK1 IC50, 1 mM ATP. The method in brief: as §1

human JAK2, sequence (O60674 828-1132): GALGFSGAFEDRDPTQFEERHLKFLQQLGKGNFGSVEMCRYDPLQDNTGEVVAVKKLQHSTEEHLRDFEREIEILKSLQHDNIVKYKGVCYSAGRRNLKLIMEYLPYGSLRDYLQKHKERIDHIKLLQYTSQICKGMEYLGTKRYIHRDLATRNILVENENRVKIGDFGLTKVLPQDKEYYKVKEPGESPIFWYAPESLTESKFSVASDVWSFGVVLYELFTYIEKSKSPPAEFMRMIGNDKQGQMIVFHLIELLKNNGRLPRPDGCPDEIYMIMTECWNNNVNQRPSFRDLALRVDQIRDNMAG

For `Cc1nn2cnc3ccsc3c2c1-c1ccc(CC#N)cc1` [Example 46, [4-(8-Methylpyrazolo[1,5-c]thieno[2,3-e]pyrimidin-9-yl)phenyl]acetonitrile], the results for the IC50 at human JAK2 and on human JAK1 [1] were at most 1000 nM and at most 100 nM, respectively. For the same compound, in the assay on human JAK1 [2], the JAK2/JAK1 is above 3.
`C[C@@H](O)c1nc2cnc3ccsc3c2n1[C@H]1CCN(CCCCC#N)C1` [Example 66, 5-((3S)-3-{2-[(1R)-1-Hydroxyethyl]-1H-imidazo[4,5-d]thieno[3,2-b]pyridin-1-yl}pyrrolidin-1-yl)pentanenitrile]: the JAK2/JAK1 in the assay on human JAK1 [2] is reported as above 10.

The values above are taken from patent US10370387B2, “Tricyclic fused thiophene derivatives as JAK inhibitors” (Incyte Corporation, priority 2012, dated 2019).
